Key:
ENaC [1] = settings: cited from earlier work
ENaC [2] = settings: cited from earlier work; remark: listed apart in the source
[3] = human oral dosing 10 mg, adults; cited from earlier work
[4] = test system: Primary human keratinocytes; assay: Proliferation / cell viability (alamar blue) of TNFα-stimulated keratinocytes; assay type: cell-based; settings: low-level inflamed keratinocyte conditions (TNFα 5 ng/ml, 24 hours)
Protocol: Primary human keratinocytes were thawed according to manufacturer's instructions, washed in growth medium (GM) and viability assessed via Tryphan blue. Cells were incubated at 37° C. with 5% CO2. After confluence, a stock cell solution of 1.5×10^5 cells/ml was prepared in GM. 200 μL of the cell suspension was added to each well of respective 96 well plates for a total of 3×10^4 cells/well. Cells were incubated at 37° C. with 5% CO2 overnight for adherence. After overnight incubation, cell culture media was removed from each well and 100 μL of fresh GM was added to each well. Appropriate concentrations of inhibitor compound, vehicle and TNFα was prepared in GM of a final volume of 3 ml. Concentrations of non-benzamil inhibitors were chosen to be 0.1×, 1× and 10× the IC50 for each primary target. […] Concentration of TNF alpha was selected to recapitulate a low level of pro-inflammatory cytokine stimulation.
100 μl of each treatment was added to appropriate wells. Samples were incubated for 24 hours. 20 hours post TNFα stimulation, 20 μL of alamar blue was added for each well. Cells were incubated for 4 hours at 37° C. 24 hours post TNFα stimulation, the fluorescence of each well was read at 544/590 nm for cell viability. […] The inflammatory cytokines TNFα, CXCL1 and IL1a in the cell culture supernatants were analysed by Luiminex. […]

CXCL1 = CXCL1 expression in TNFα-stimulated primary keratinocytes (Luminex on supernatant); assay type: cell-based, human; settings: CXCL1, IL1a and TNFα in TNFα-stimulated keratinocytes; concentration where ENaC, NCX1 and NHE1 were predicted to be targeted
Protocol: Primary keratinocytes were stimulated with TNFα (5 ng/ml) for 24 hours and expression of pro-inflammatory cytokines involved in inflammatory skin disease was analyzed with benzamil as inhibitor and compared to inhibitors with different affinity to ENaC/NCX1/NHE1 (amiloride), ENaC but not NCX1 and NHE1 (Camostat mesilate), NCX1 but not ENaC or NHE1 (KB-R7943) or NHE but not ENaC or NCX1 (zoniporide).
Primary human keratinocytes were thawed according to manufacturer's instructions, washed in growth medium (GM) and viability assessed via Tryphan blue. Cells were incubated at 37° C. with 5% CO2. After confluence, a stock cell solution of 1.5×10^5 cells/ml was prepared in GM. 200 μL of the cell suspension was added to each well of respective 96 well plates for a total of 3×10^4 cells/well. Cells were incubated at 37° C. with 5% CO2 overnight for adherence. After overnight incubation, cell culture media was removed from each well and 100 μL of fresh GM was added to each well. Appropriate concentrations of inhibitor compound, vehicle and TNFα was prepared in GM of a final volume of 3 ml. […]
100 μl of each treatment was added to appropriate wells. […] 24 hours post TNFα stimulation, the fluorescence of each well was read at 544/590 nm for cell viability. […] The inflammatory cytokines TNFα, CXCL1 and IL1a in the cell culture supernatants were analysed by Luiminex. […]

NCX = NCX (Homo sapiens, UniProt P32418); settings: cited from earlier work

For `NC(=Nc1ccccc1)NC(=O)c1nc(Cl)c(N)nc1N` [phenamil], the “in vivo efficacy specifically on ENaC relative to amiloride” value (ENaC [1]) is given as “equivalent to amiloride”.
In the case of `N=C(N)NC(=O)c1nc(Cl)c(N)nc1N` [amiloride], the IC50 (ENaC [2]) is listed as 0.1 µM and the serum concentration [3] is listed as 20.6 ng/mL.
In the case of `CN(C)C(=O)COC(=O)Cc1ccc(OC(=O)c2ccc(NC(=N)N)cc2)cc1` [Camostat Mesilate, Camostat mesilate], the IC50 (ENaC [2]) is listed as 0.05 µM.
In the case of `NC(=NCc1ccccc1)NC(=O)c1nc(Cl)c(N)nc1N` [benzamil], the proliferation ([4]; FIG. 6) is reported as “does not reduce proliferation”, the proliferation ([4]; FIG. 6, listed as Benzamil) is reported as “did not reduce proliferation” and the “efficacious concentration for reducing cytokine expression” value (CXCL1) is reported as “above 1 uM”.
In the case of `N=C(N)SCCc1ccc(OCc2ccc([N+](=O)[O-])cc2)cc1` [KB-R7943], the IC50 (NCX) is given as 5 to 10 µM.

Source: patent US20250009739A1, “METHOD OF TREATING A SKIN DISORDER” (PHAMRI Norden AB, priority 2021, published 2025)
